This note sets out measurements from ChEMBL document CHEMBL2331557, “Antidepressant abietane diterpenoids from Chinese eaglewood” (J Nat Prod, 2013).

Each structure is given as a SMILES string.

The species entered for the first experiment is Rattus norvegicus. Briefly: Inhibition of [3H]NE reuptake at NET in rat brain synaptosomes at 10 uM. It is filed as subcellular.
In turn, `CC(C)[C@@]1(O)C=C2[C@H](O)C[C@@H]3[C@](C)(CCC[C@@]3(C)C(=O)O)[C@H]2C[C@@H]1O` [AQUILARABIETIC ACID B] displayed an inhibition of 39.1%.

Compound `COC(C)(C)c1ccc2c(c1)[C@H](O)C[C@H]1[C@](C)(C(=O)O)CCC[C@]21C` showed an inhibition of 70.4%.

In the case of `CC(C)[C@]1(O)CC[C@H]2C(=C[C@H](O)[C@@H]3[C@]2(C)CCC[C@@]3(C)C(=O)O)[C@H]1O`, the inhibition was 37.2%.

`CC(C)(O)[C@]1(O)CCC2=C(C(=O)C[C@H]3[C@](C)(C(=O)O)CCC[C@]23C)[C@H]1O` came in with an inhibition of 0%.

`CCO[C@H]1C[C@H]2C(=CC[C@@H]3[C@]2(C)CCC[C@@]3(C)C(=O)O)C=C1C(C)C` displayed an inhibition of 13.4%.

Compound `CC(C)[C@@]1(O)C=C2[C@H](O)C[C@H]3[C@](C)(C(=O)O)CCC[C@]3(C)[C@@]2(O)CC1` [AQUILARABIETIC ACID A] returned an inhibition of 81.8%.

Turning to `CNCC[C@H](Oc1cccc2ccccc12)c1cccs1`, the inhibition came out at 81.4%.

The compound `C[C@]12CCC[C@@](C)(C(=O)O)[C@@H]1CC(=O)C1CC(=O)CC[C@@H]12` (some centres undefined) displayed an inhibition of 18.9%.

`CC(C)[C@@]12CC[C@H]3C(=C[C@@H]4OC(=O)[C@]5(C)CCC[C@@]3(C)[C@@H]45)[C@@H]1O2` gave an inhibition of 8.1%.

`CC(C)[C@@]12C=C3[C@H](O)C[C@@H]4[C@](C)(CCC[C@@]4(C)C(=O)O)[C@H]3C[C@@H]1OC(C)(C)O2`: the inhibition came to 37.6%.

The compound `CC(C)[C@]1(O)C=C2[C@H](O)C[C@@H]3[C@](C)(CCC[C@@]3(C)C(=O)O)[C@H]2C[C@H]1O` came in with an inhibition of 34.4%.

Compound `C=C(C)c1ccc2c(c1)[C@H](O)C[C@H]1[C@](C)(C(=O)O)CCC[C@]21C` displayed an inhibition of 73.8%.

System in the next experiment: not listed separately
The experiment in a line: Inhibition of [3H]NE reuptake at NET in rat brain synaptosomes. It is filed as subcellular.
As to `CC(C)[C@@]1(O)C=C2[C@H](O)C[C@H]3[C@](C)(C(=O)O)CCC[C@]3(C)[C@@]2(O)CC1` [AQUILARABIETIC ACID A], the IC50 came out at 910 nM.

In the next experiment the target is Sodium-dependent serotonin transporter (Rattus norvegicus, UniProt P31652). The experiment in a line: Inhibition of [3H]5-HT reuptake at SERT in rat brain synaptosomes. It is filed as subcellular.
Chain of Sodium-dependent serotonin transporter (P31652 whole entry): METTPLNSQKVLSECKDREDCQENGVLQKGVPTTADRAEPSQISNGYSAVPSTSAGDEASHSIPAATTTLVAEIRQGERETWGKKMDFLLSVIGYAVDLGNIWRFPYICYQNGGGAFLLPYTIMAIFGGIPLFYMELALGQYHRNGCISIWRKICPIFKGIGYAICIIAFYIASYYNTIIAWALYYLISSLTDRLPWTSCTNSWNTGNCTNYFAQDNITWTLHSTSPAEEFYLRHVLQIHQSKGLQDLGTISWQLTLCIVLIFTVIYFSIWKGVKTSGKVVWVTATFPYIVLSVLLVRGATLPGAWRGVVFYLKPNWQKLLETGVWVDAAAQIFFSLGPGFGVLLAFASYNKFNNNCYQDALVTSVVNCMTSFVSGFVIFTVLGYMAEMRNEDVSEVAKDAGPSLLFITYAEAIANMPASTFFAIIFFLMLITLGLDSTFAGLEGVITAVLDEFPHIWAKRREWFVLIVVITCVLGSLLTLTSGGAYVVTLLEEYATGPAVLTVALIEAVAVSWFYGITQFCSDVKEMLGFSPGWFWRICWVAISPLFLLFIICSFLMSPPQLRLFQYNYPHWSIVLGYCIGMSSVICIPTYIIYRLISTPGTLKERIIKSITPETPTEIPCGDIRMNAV
`CC(C)[C@@]1(O)C=C2[C@H](O)C[C@@H]3[C@](C)(CCC[C@@]3(C)C(=O)O)[C@H]2C[C@@H]1O` [AQUILARABIETIC ACID B]: the half-inhibitory concentration (IC50) is 3200 nM.
